PMC12723384, “A S180F substitution in D-alanine aminotransferase confers resistance to β-chloro-D-alanine in Staphylococcus aureus” (The Journal of Biological Chemistry, 2025)

Experiments:
Format in all cases: biochemical
[1] = molecular target: T1, D-alanine aminotransferase (Dat-S180F) (Staphylococcus aureus, UniProt A0A0H2XHU6, S180F); experiment: lactate dehydrogenase-coupled assay of pyruvate production from D-alanine, A340
T1 construct: recombinant HIS-tagged Dat-S180F from BCDA1, expressed from pET28b in E. coli
T1 sequence (A0A0H2XHU6 1-282 S180F): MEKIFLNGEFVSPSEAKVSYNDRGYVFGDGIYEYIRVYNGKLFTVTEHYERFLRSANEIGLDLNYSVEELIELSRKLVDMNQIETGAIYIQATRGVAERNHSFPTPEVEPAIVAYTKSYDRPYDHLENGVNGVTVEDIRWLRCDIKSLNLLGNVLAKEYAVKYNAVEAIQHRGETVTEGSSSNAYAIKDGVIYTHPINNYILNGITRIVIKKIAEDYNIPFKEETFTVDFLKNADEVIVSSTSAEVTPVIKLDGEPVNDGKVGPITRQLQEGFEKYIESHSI

[2] = molecular target: T2, D-alanine aminotransferase (Dat) (Staphylococcus aureus, UniProt A0A0H2XHU6); experiment: as above
T2 construct: recombinant HIS-tagged wild-type Dat from JE2, expressed from pET28b in E. coli
T2 sequence (A0A0H2XHU6 1-282): T1 sequence (A0A0H2XHU6 1-282 S180F)

[3] = molecular target: T3, D-alanine aminotransferase (Dat) (Staphylococcus aureus, UniProt Q5HF24); experiment: lactate dehydrogenase-coupled assay, turnover of […] D-alanine to pyruvate
T3 construct: recombinant HIS-tagged wild-type Dat

SMILES | IC50 [1] [µM] | IC50 [2] [µM] | lactate dehydrogenase-coupled assay, turnover of 25 mM D-alanine to pyruvate [3]
N[C@H](CCl)C(=O)O [BCDA, β-chloro-D-alanine] | 34 ± 4.7 | 96.8 ± 12 | 
C[C@@H](N)C(=O)O [D-alanine] |  |  | comparison of wild-type Dat (green) and Dat-S180F (violet) enzymatic production of pyruvate from D-alanine
